IC50 and inhibition data for 5 compounds are collected here from ChEMBL document CHEMBL3217647, “Prospective use of molecular field points in ligand-based virtual screening: efficient identification of new reversible Cdc25 inhibitors” (Medchemcomm, 2013).

Bounds are passed on as bounds.

The IC50 is the midpoint of a concentration-inhibition curve. In general, inhibition refers to the drop in the measured response relative to a control, in per cent.

The first assay addresses T1, M-phase inducer phosphatase 3 (Homo sapiens, UniProt P30307).
T1 sequence (P30307 whole entry): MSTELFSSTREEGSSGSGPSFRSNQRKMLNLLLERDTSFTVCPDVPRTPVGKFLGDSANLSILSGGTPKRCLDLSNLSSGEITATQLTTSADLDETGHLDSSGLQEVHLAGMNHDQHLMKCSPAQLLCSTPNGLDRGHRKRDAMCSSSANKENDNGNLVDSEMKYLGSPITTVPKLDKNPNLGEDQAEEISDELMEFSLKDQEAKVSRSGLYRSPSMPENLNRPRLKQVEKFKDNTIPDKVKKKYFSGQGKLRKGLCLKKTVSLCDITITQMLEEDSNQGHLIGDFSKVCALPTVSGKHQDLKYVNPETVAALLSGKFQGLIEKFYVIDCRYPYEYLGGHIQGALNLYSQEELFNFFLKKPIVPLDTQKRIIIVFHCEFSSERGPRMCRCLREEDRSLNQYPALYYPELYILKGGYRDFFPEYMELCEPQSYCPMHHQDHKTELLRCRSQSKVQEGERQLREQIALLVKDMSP
Briefly: Inhibition of Cdc25C (unknown origin) phosphatase activity assessed as fluorescence by BMG plate reader in the absence of detergent.
Take `CCOc1ccc(-c2nc(-c3ccc4[nH]c(=O)[nH]c4c3)cs2)cc1`: the half-maximal inhibitory concentration (IC50) turned out to be 10.2 µM.

For `O=C(Nc1cccc(-c2csc(-c3ccccc3)n2)c1)c1ccco1`, the IC50 was greater than 100 µM.

The species named for the next assay is Homo sapiens. The assay can be described thus: Inhibition of alkaline phosphatase (unknown origin) phosphatase activity assessed as fluorescence at 100 uM by BMG plate reader in the presence of 0.005% Tween-20.
On to `CCOc1ccc(-c2nc(-c3ccc4[nH]c(=O)[nH]c4c3)cs2)cc1`, for which the inhibition is less than 50%.

The next assay deals with T2, M-phase inducer phosphatase 2 (Homo sapiens, UniProt P30305).
T2 sequence (P30305 whole entry): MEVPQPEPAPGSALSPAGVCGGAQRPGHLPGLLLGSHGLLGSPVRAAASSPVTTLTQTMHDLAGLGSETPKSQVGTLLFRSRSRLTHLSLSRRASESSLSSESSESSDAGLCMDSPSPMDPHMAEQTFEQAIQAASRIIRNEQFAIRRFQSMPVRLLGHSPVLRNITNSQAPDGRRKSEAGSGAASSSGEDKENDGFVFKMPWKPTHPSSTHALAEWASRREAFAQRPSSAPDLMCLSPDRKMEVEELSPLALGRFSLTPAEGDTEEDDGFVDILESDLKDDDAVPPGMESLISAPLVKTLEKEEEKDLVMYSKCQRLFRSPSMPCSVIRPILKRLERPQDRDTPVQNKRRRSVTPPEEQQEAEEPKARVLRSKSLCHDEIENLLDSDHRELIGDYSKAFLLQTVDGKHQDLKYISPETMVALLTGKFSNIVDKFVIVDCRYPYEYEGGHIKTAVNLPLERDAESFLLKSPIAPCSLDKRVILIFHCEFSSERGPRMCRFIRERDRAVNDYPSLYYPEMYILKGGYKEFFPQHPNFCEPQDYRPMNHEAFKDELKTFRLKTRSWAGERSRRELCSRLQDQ
Briefly: Inhibition of Cdc25B (unknown origin) phosphatase activity assessed as fluorescence by BMG plate reader in the absence of detergent.
Regarding `CCOc1ccc(-c2nc(-c3ccc4[nH]c(=O)[nH]c4c3)cs2)cc1`, the IC50 is 8.9 µM.

Turning to `O=C(Nc1cccc(-c2csc(-c3ccccc3)n2)c1)c1ccco1`, the half-inhibitory concentration (IC50) was greater than 100 µM.

The next assay deals with T3, Dual specificity protein phosphatase 3 (Homo sapiens, UniProt P51452). The assay can be described thus: Inhibition of human His-tagged VHR phosphatase activity assessed as fluorescence by BMG plate reader in the presence of 0.005% Tween-20.
T3 sequence (P51452 whole entry): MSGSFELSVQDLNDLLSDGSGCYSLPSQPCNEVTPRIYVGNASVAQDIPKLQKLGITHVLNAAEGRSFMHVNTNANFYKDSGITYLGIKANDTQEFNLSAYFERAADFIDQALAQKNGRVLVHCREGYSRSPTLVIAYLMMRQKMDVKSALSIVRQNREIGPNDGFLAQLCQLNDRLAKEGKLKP
Turning to `O=C(CCC(=O)Nc1nc(-c2cc3ccccc3oc2=O)cs1)NCc1ccc2c(c1)OCO2`, the 50% inhibitory concentration (IC50) was 17 µM.

For `COc1ccc(-c2nc(-c3cnc(N)nc3)cs2)cc1`, the IC50 is greater than 100 µM.

For the compound `O=C(Nc1nc(-c2ccc(F)cc2)cs1)c1cnccn1`, the IC50 was greater than 100 µM.

`CCOc1ccc(-c2nc(-c3ccc4[nH]c(=O)[nH]c4c3)cs2)cc1`: the IC50 worked out at 20.1 µM.

As to `O=C(Nc1cccc(-c2csc(-c3ccccc3)n2)c1)c1ccco1`, the 50% inhibitory concentration (IC50) was greater than 100 µM.

For another assay, the target named is T4, M-phase inducer phosphatase 1 (Homo sapiens, UniProt P30304).
T4 sequence (P30304 whole entry): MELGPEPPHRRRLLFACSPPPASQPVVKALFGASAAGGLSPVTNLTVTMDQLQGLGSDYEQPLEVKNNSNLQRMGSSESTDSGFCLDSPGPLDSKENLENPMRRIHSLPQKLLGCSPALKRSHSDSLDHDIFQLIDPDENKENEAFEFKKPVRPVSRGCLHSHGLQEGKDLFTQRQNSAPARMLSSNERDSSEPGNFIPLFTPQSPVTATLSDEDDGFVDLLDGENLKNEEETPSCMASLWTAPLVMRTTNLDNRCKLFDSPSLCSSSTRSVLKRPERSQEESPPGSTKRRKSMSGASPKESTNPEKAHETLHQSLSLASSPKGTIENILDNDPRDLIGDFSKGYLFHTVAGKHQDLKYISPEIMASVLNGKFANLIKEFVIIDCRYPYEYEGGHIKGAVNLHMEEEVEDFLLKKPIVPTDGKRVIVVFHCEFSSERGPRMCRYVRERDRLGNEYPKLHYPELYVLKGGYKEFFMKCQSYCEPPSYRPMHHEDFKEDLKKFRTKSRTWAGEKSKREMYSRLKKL
The assay can be described thus: Inhibition of Cdc25A (unknown origin) phosphatase activity assessed as fluorescence by BMG plate reader in the presence of 0.005% Tween-20.
As to `O=C(CCC(=O)Nc1nc(-c2cc3ccccc3oc2=O)cs1)NCc1ccc2c(c1)OCO2`, the concentration for half-maximal inhibition (IC50) is 20.1 µM.

Regarding `COc1ccc(-c2nc(-c3cnc(N)nc3)cs2)cc1`, the half-inhibitory concentration (IC50) stood at 25 µM.

Regarding `O=C(Nc1nc(-c2ccc(F)cc2)cs1)c1cnccn1`, the IC50 amounted to 25.7 µM.

`CCOc1ccc(-c2nc(-c3ccc4[nH]c(=O)[nH]c4c3)cs2)cc1`: the half-maximal inhibitory concentration (IC50) came out at 23.6 µM.

As for `O=C(Nc1cccc(-c2csc(-c3ccccc3)n2)c1)c1ccco1`, the IC50 is greater than 100 µM.

The target of the next assay is T2, M-phase inducer phosphatase 2. Briefly: Inhibition of Cdc25B (unknown origin) phosphatase activity assessed as fluorescence by BMG plate reader in the presence of 0.005% Tween-20.
For the compound `O=C(CCC(=O)Nc1nc(-c2cc3ccccc3oc2=O)cs1)NCc1ccc2c(c1)OCO2`, the 50% inhibitory concentration (IC50) worked out at 0.9 µM.

As for `COc1ccc(-c2nc(-c3cnc(N)nc3)cs2)cc1`, the IC50 worked out at 19.7 µM.

`O=C(Nc1nc(-c2ccc(F)cc2)cs1)c1cnccn1`: the half-inhibitory concentration (IC50) came to 16 µM.

Consider `CCOc1ccc(-c2nc(-c3ccc4[nH]c(=O)[nH]c4c3)cs2)cc1`, for which the IC50 came to 17.9 µM.

`O=C(Nc1cccc(-c2csc(-c3ccccc3)n2)c1)c1ccco1`: the half-maximal inhibitory concentration (IC50) was greater than 100 µM.

Another assay has as its target T1, M-phase inducer phosphatase 3. Briefly: Inhibition of Cdc25C (unknown origin) phosphatase activity assessed as fluorescence by BMG plate reader in the presence of 0.005% Tween-20.
Turning to `O=C(CCC(=O)Nc1nc(-c2cc3ccccc3oc2=O)cs1)NCc1ccc2c(c1)OCO2`, the half-maximal inhibitory concentration (IC50) was found to be 8.2 µM.

Turning to `COc1ccc(-c2nc(-c3cnc(N)nc3)cs2)cc1`, the IC50 is greater than 100 µM.

Consider `O=C(Nc1nc(-c2ccc(F)cc2)cs1)c1cnccn1`, for which the IC50 stood at 40 µM.

`CCOc1ccc(-c2nc(-c3ccc4[nH]c(=O)[nH]c4c3)cs2)cc1`: the IC50 stood at 47.3 µM.

In the case of `O=C(Nc1cccc(-c2csc(-c3ccccc3)n2)c1)c1ccco1`, the IC50 was greater than 100 µM.

For the next assay, the target named is T4, M-phase inducer phosphatase 1. The assay can be described thus: Inhibition of Cdc25A (unknown origin) phosphatase activity assessed as fluorescence by BMG plate reader in the absence of detergent.
On to `CCOc1ccc(-c2nc(-c3ccc4[nH]c(=O)[nH]c4c3)cs2)cc1`, for which the IC50 came out at 2.4 µM.

On to `O=C(Nc1cccc(-c2csc(-c3ccccc3)n2)c1)c1ccco1`, for which the IC50 was determined as 17.8 µM.

Another assay has as its target T3, Dual specificity protein phosphatase 3. The assay can be described thus: Inhibition of human His-tagged VHR phosphatase activity assessed as fluorescence by BMG plate reader in the absence of detergent.
Regarding `CCOc1ccc(-c2nc(-c3ccc4[nH]c(=O)[nH]c4c3)cs2)cc1`, the IC50 stood at 1.9 µM.

Take `O=C(Nc1cccc(-c2csc(-c3ccccc3)n2)c1)c1ccco1`: the IC50 was found to be 26.1 µM.

The next assay deals with T5, Tyrosine-protein phosphatase non-receptor type 1 (Homo sapiens) (UniProt P18031).
T5 sequence (whole entry): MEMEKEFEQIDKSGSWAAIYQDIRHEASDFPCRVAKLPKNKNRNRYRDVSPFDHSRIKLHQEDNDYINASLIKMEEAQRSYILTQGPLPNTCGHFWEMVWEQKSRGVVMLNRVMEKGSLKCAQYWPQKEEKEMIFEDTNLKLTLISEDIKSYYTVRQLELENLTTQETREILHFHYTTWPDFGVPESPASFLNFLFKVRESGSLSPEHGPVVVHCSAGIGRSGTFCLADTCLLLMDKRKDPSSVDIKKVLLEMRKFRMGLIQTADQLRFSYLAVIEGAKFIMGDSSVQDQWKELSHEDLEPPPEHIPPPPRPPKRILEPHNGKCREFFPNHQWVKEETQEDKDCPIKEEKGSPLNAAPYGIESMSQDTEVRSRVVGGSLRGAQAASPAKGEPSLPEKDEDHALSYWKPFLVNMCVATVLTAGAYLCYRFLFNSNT
Briefly: Inhibition of PTP1B (unknown origin) phosphatase activity assessed as fluorescence at 100 uM by BMG plate reader in the presence of 0.005% Tween-20.
Regarding `CCOc1ccc(-c2nc(-c3ccc4[nH]c(=O)[nH]c4c3)cs2)cc1`, the inhibition is less than 50%.

For a further assay, the species on record is Homo sapiens. Briefly: Inhibition of MKP-5/p38 (unknown origin) phosphatase activity assessed as fluorescence at 100 uM by BMG plate reader in the presence of 0.005% Tween-20.
Regarding `CCOc1ccc(-c2nc(-c3ccc4[nH]c(=O)[nH]c4c3)cs2)cc1`, the inhibition was less than 50%.
